Consider 1 compound from patent publication US10111848B2 (National Institute of Health and Medical Research, priority 2012, dated 2018).

The experiment deals with Subjects exhibiting GLUT1 deficiency. As to the kind of experiment: Treatment of subjects exhibiting GLUT1 deficiency with triheptanoin (Example 1). The conditions noted are these: triheptanoin with each meal, about 30-35% of caloric intake, with or without other anti-epileptic drugs. It counts as in vivo. The text has this:
The subjects' seizure frequency is reduced and their neurologic and movement disorder is improved due to the restoration of brain energy metabolism and net biosynthesis.

For the compound `CCCCCCC(=O)OCC(COC(=O)CCCCCC)OC(=O)CCCCCC` [triheptanoin, glyceryl triheptanoate], the “neurologic and movement disorder” value is recorded as “improved”; the seizure frequency entry is listed as “reduced”.
